In US7709539B2, “Therapeutic use of resveratrol for hyperglycemia” (Chang Gung University, priority 2004, dated 2010):

Legend:
Type in all cases: in vivo, rat
NIDDM SD rats = assay: Antihyperglycemic effect in NIDDM SD rats (nicotinamide/STZ-induced); settings: 0.1 mg/kg oral
Experimental: Resveratrol was first dissolved in DMS0 and diluted to 0.05 mg, 0.1 mg and 0.5 mg per ml wit normal saline. Animals were fed with desired amounts of drug solutions though tubing from the mouth into the stomach. B. NIDDM: Male SD rats were fasted for 48 hrs and anesthetized by intraperitoneal injection of pentobarbital at 30 mg/kg body weight. Animals were then injected with nicotinamide (100 mg/kg, ip) and streptozotocin (65 mg/kg, iv). Four weeks later, plasma glucose concentration was determined by the glucose oxidase method (Chemistry Analyzer; Autoanalyzer Quik-Lab., Ames, Spain). Animals with fasting blood sugar levels around 200 mg/dl and the development of an obese phenotype are classified as being induced to NIDDM. Normal, IDDM, and NIDDM SD rats were fasted for 8 hrs and anesthetized by pentobarbital (30 mg/kg, ip). Animals were fed with different dosages of resveratrol (0.05 mg, 0.1 mg, or 0.5 mg per kg body weight), and blood samples were then collected from femoral vein at the time points 0, 60, 90, and 120 min. Ten μl plasma was mixed with 1 ml glucose kit reagent and incubated at 37° C. for 10 min. The blood sugar level was determined as described. Data were expressed as mean±standard error (S.E.). […] NIDDM rats were fed with resveratrol and blood sugar was then measured as described.

[1] = tested on: NIDDM insulin-resistant SD rats; assay: Antihyperglycemic effect in NIDDM insulin-resistant SD rats (insulin-induced)
Experimental: Resveratrol was first dissolved in DMS0 and diluted to 0.05 mg, 0.1 mg and 0.5 mg per ml wit normal saline. Animals were fed with desired amounts of drug solutions though tubing from the mouth into the stomach. A. Insulin Resistance: Male SD rats were intraperitoneally injected with insulin (Monotard®HM; Novo Nordisk, Bagsvaerd, Denmark, 0.5 IU/kg, tid) for 2 weeks. The development of insulin resistance is confirmed by a tolbutamide test (11). Normal, IDDM, and NIDDM SD rats were fasted for 8 hrs and anesthetized by pentobarbital (30 mg/kg, ip). Animals were fed with different dosages of resveratrol (0.05 mg, 0.1 mg, or 0.5 mg per kg body weight), and blood samples were then collected from femoral vein at the time points 0, 60, 90, and 120 min. Ten μl plasma was mixed with 1 ml glucose kit reagent and incubated at 37° C. for 10 min. The blood sugar level was determined as described. […]. Data were expressed as mean±standard error (S.E.). Statistical analysis was performed using ANOVA (analysis of variance) followed by Dunnett test, and the significant difference was set at P<0.05. NIDDM rats were fed with resveratrol and blood sugar was then measured as described.

IDDM SD rats = assay: Antihyperglycemic effect in IDDM SD rats (STZ-induced); settings: 90 min after drug feeding
Experimental: Resveratrol was first dissolved in DMS0 and diluted to 0.05 mg, 0.1 mg and 0.5 mg per ml wit normal saline. Animals were fed with desired amounts of drug solutions though tubing from the mouth into the stomach. Male rats were fasted for […] and anesthetized by intraperitoneal injection of pentobarbital at 30 mg/kg body weight. Animals were then injected with freshly prepared streptozotocin (STZ) solution at 65 mg/kg body weight intravenously. Three days later, blood sugar was measured. Animals with blood sugar levels above 400 mg/dl and symptoms of polyphagia, polyuria and polydipsia are classified as being induced to IDDM. Normal, IDDM, and NIDDM SD rats were fasted for 8 hrs and anesthetized by pentobarbital (30 mg/kg, ip). Animals were fed with different dosages of resveratrol (0.05 mg, 0.1 mg, or 0.5 mg per kg body weight), and blood samples were then collected from femoral vein at the time points 0, 60, 90, and 120 min. Ten μl plasma was mixed with 1 ml glucose kit reagent and incubated at 37° C. for 10 min. The blood sugar level was determined as described. Data were expressed as mean±standard error (S.E.). […] IDDM SD rats were fed with resveratrol at 0.05 mg, 0.1 mg, or 0.5 mg per kg body weight and the blood sugar was measured at 90 min after drug feeding.

normal SD rats = assay: Hypoglycemic effect in normal SD rats (blood sugar); settings: for reduction of blood sugar: normal SD rats, 90 min after drug feeding
Experimental: Eight week-old Sprague Dawley (SD) rats (body weight from 200 gm to 250 gm) were maintained in the Animal Center of the Chang (Jung Memorial Hospital, under an ambient temperature of 25±1° C. and a light-dark period of 12 hrs. Animals were fed with normal chow and water. Resveratrol was first dissolved in DMS0 and diluted to 0.05 mg, 0.1 mg and 0.5 mg per ml wit normal saline. Animals were fed with desired amounts of drug solutions though tubing from the mouth into the stomach. Normal, IDDM, and NIDDM SD rats were fasted for 8 hrs and anesthetized by pentobarbital (30 mg/kg, ip). Animals were fed with different dosages of resveratrol (0.05 mg, 0.1 mg, or 0.5 mg per kg body weight), and blood samples were then collected from femoral vein at the time points 0, 60, 90, and 120 min. Ten μl plasma was mixed with 1 ml glucose kit reagent and incubated at 37° C. for 10 min. The blood sugar level was determined as described. […]. Data were expressed as mean±standard error (S.E.). Statistical analysis was performed using ANOVA (analysis of variance) followed by Dunnett test, and the significant difference was set at P<0.05. Male SD rats were fed with resveratrol at 0.05 mg, 0.1 mg, or 0.5 mg per kg body weight and plasma glucose level was measured at 90 min after drug feeding.

[2] = tested on: SD rats injected with insulin; assay: Development of insulin resistance and body weight increase in insulin-injected SD rats
Experimental: A. Insulin Resistance: Male SD rats were intraperitoneally injected with insulin (Monotard®HM; Novo Nordisk, Bagsvaerd, Denmark, 0.5 IU/kg, tid) for 2 weeks. The development of insulin resistance is confirmed by a tolbutamide test (11). Male SD rats were intraperitoneally injected with insulin at 0.5 IU/kg, tid with or without resveratrol feeding (0.5 mg/kg BW, bid) Animals without resveratrol feeding started to develop insulin resistance on day 16.5±1.5. In contrast, development of insulin resistance in the resveratrol-fed animals was delayed till 23.5±1.5 days. In addition, resveratrol reduced the body weight increase by 6% compared with the untreated insulin-resistant animals (FIG. 6)

`Oc1ccc(C=Cc2cc(O)cc(O)c2)cc1` [resveratrol] was tested, and the “reduction of blood sugar” value (NIDDM SD rats) was 28.3±1.67%, the “reduction of blood sugar” value ([1]; NIDDM insulin-resistant SD rats, 0.5 mg/kg oral, 90 min after drug feeding) was 32.1±1.62% and the “hypoglycemic effect, dose dependence” value ([1]; NIDDM insulin-resistant rats, oral) was “dose-dependent hypoglycemic effect”. The “reduction of blood sugar” value (IDDM SD rats; 0.1 mg/kg oral) was 21.00±5.84%, the “reduction of blood sugar” value (IDDM SD rats; 0.5 mg/kg oral) was 23.00±1.89% and the “reduction of blood sugar” value (normal SD rats; 0.1 mg/kg oral) was 25.72±4.03%. For the same compound, the “reduction of blood sugar” value (normal SD rats; 0.5 mg/kg oral) was 35.53±2.0%, the “blood sugar reduction, dose dependence” value (normal SD rats; normal SD rats, 0.05, 0.1, 0.5 mg/kg oral, 90 min) was “dose-dependent manner” and the “time to development of insulin resistance” value ([2]; insulin 0.5 IU/kg ip tid with resveratrol feeding 0.5 mg/kg BW bid, without resveratrol day 16.5±1.5) was 23.5 ± 1.5 days. The “reduction of body weight increase compared with untreated insulin-resistant animals” value ([2]; insulin-resistant SD rats, resveratrol 0.5 mg/kg BW bid) was 6%.
